The text below walks through data of patent US20210379068A1, “METHODS AND MATERIALS FOR TREATING NEUROPSYCHIATRIC DISORDERS” (Mayo Foundation for Medical Education and Research, priority 2018, published 2021).

Entries after “also recorded” stand apart in the source; their conditions may differ.

This assay has as its system INK-ATTAC mice. As to the kind of experiment: Stone's T-maze, INK-ATTAC mice treated with AP20187. It counts as in vivo, mouse. The conditions noted are these: chow/HFD INK-ATTAC mice; AP20187 vs vehicle. Here is the method:
INK-ATTAC mice were injected intraperitoneally (i.p.) with AP20187 (10 mg/kg) or vehicle for 3 days every 2 weeks for a total of 8-10 weeks.
A water-motivated version of the Stone's T-maze was used to measure parameters of cognition. A straight run (for pre-training) or Stone's T-maze were placed into a steel pan filled with water to a depth of approximately 3 cm so that half the height of the interior walls of the maze were under water. The ceilings of both the straight run and maze were covered with clear acrylic to prevent mice from rearing out of the water. These dimensions created a situation that enables the mice to maintain contact with the floor while keeping their heads above water. The mice were placed into a start box and were pushed into the maze using a sliding panel. At the end of the straight run or maze there was a goal box that contains a ramp to a dry floor, which allows the mice to escape from the water upon successful completion of the straight run or maze. On day one, mice underwent straight run training to establish the concept that moving forward allows them to escape the water by reaching a water-free goal box. Successful completion of this phase requires the mice to reach the goal box in 10 seconds or faster in 8 out of 10 trials. […] Maze training commenced the following day. Mice had to complete 9 maze acquisition trials in a single day. […]

Take `CC[C@H](C(=O)N1CCCC[C@H]1C(=O)O[C@H](CCc1ccc(OC)c(OC)c1)c1cccc(OCC(=O)NCC(CNC(=O)COc2cccc([C@@H](CCc3ccc(OC)c(OC)c3)OC(=O)[C@@H]3CCCCN3C(=O)[C@@H](CC)c3cc(OC)c(OC)c(OC)c3)c2)CN(C)C)c1)c1cc(OC)c(OC)c(OC)c1` [AP]: the “short-term memory (Stone's maze: time to finish, frequency of errors)” value was “not affected; also recorded: not altered”.
